Test results: the NIST ThermoML archive (doi:10.1016/j.tca.2016.08.003)
± gives the expanded uncertainty stated by the source.

Assays:
[1] = Crystal; DTA
[2] = Molar enthalpy of transition or fusion; conditions: Crystal; DSC

| Compound | Normal melting temperature [1] [°C] | Molar enthalpy of transition or fusion [2] [kcal/mol] |
| --- | --- | --- |
| O=[N+]([O-])[O-].[K+] [potassium nitrate] | 333.80 ± 1.1 | 2.49 ± 0.0717 |
| O=[N+]([O-])[O-].[Rb+] [rubidium nitrate] | 309.50 ± 2 | 1.17 ± 0.0741 |
| O=[N+]([O-])[O-].[Na+] [sodium nitrate] | 305.90 ± 0.6 | 3.7 ± 0.0813 |
